Some targets named below: Carbonic anhydrase 13 (Mus musculus, UniProt Q9D6N1); Carbonic anhydrase 14 (Homo sapiens, UniProt Q9ULX7); Carbonic anhydrase 3 (Homo sapiens, UniProt P07451); Carbonic anhydrase 7 (Homo sapiens, UniProt P43166); Carbonic anhydrase 12 (Homo sapiens, UniProt O43570); Carbonic anhydrase 6 (Homo sapiens, UniProt P23280).
Assay [1] deals with Carbonic anhydrase 5B, mitochondrial (Homo sapiens, UniProt Q9Y2D0).
Assay [2] concerns the target Carbonic anhydrase 5A, mitochondrial (Homo sapiens, UniProt P35218).

Sequence of Carbonic anhydrase 13 (Q9D6N1 whole entry): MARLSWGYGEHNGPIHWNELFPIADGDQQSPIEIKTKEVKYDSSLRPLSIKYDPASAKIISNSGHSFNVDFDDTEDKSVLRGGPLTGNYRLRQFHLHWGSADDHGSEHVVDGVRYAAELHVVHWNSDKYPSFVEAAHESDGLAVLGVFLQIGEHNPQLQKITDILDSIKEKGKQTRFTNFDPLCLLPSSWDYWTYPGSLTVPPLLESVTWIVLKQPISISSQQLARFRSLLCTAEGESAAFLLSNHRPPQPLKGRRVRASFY
Sequence of Carbonic anhydrase 6 (P23280 whole entry): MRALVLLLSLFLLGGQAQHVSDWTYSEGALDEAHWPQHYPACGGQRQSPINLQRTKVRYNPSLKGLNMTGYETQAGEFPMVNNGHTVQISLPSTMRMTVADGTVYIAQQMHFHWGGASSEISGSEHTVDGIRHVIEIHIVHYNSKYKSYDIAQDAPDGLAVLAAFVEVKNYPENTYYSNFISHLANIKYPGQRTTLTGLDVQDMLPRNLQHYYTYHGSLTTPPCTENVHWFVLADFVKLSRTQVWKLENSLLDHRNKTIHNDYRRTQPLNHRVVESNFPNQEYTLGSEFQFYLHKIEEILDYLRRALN
Sequence of Carbonic anhydrase 12 (O43570 whole entry): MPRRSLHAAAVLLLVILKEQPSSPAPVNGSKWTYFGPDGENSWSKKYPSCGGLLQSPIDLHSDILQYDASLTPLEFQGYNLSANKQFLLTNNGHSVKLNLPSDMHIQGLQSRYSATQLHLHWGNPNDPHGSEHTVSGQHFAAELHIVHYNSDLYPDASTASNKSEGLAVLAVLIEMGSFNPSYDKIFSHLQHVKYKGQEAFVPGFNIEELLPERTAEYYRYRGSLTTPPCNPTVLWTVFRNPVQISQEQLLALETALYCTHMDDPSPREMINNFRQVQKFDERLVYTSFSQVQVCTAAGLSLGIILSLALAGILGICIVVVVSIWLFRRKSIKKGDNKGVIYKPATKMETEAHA
Sequence of Carbonic anhydrase 3 (P07451 whole entry): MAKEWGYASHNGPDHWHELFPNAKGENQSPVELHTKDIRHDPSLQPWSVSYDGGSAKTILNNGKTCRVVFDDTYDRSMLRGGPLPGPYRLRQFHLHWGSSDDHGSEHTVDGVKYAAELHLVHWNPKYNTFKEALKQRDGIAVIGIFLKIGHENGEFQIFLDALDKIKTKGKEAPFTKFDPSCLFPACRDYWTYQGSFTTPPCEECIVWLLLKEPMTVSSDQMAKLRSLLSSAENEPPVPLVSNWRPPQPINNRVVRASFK
Sequence of Carbonic anhydrase 5A, mitochondrial (P35218 whole entry): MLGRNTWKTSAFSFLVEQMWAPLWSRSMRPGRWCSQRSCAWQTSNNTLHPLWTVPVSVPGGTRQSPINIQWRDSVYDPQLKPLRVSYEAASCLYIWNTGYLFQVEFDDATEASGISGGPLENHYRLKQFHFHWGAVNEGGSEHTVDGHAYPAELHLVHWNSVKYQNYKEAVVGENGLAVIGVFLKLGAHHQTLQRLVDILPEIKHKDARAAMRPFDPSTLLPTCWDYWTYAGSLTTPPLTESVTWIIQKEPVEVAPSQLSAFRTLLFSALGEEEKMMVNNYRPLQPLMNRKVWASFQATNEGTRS
Sequence of Carbonic anhydrase 14 (Q9ULX7 whole entry): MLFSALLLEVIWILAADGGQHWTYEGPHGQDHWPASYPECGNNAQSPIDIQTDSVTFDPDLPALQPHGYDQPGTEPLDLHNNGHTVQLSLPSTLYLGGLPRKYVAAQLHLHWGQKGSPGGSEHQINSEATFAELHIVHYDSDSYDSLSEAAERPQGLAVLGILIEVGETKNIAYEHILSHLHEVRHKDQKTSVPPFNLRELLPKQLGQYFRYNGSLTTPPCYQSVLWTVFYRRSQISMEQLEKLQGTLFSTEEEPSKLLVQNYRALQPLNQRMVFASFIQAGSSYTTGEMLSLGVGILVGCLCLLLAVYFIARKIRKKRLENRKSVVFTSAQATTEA
Sequence of Carbonic anhydrase 5B, mitochondrial (Q9Y2D0 whole entry): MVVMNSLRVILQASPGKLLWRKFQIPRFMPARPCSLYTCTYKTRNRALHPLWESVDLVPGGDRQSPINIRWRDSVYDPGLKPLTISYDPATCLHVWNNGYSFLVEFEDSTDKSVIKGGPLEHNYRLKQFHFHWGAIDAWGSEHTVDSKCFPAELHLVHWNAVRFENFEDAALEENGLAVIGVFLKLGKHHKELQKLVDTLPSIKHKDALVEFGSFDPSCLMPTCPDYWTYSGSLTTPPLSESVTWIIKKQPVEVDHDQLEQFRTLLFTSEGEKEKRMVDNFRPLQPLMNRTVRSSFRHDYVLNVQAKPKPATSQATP
Sequence of Carbonic anhydrase 7 (P43166 whole entry): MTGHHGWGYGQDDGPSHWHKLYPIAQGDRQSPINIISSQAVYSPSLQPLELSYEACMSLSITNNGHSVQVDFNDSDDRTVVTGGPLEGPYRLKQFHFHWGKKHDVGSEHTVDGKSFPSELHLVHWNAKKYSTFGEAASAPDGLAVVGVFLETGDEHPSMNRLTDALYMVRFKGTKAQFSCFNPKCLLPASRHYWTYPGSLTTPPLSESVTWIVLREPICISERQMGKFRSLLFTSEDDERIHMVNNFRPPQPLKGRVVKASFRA

`CCCCCCCCCCOS(N)(=O)=O` [DECYL SULFAMATE]: affinity at Carbonic anhydrase 13 was put at a Ki of 956 nM.

As for `NS(=O)(=O)OCCCCCCCCCCOS(N)(=O)=O`, on Carbonic anhydrase 13, the Ki (commonly the dissociation constant of the complex between target and ligand, obtained from inhibition or displacement) was 960 nM.

Take `CCCCCCCCOS(N)(=O)=O` [OCTYL SULFAMATE]: the Ki at Carbonic anhydrase 14 turned out to be 390 nM; in assay [1], 624 nM; at Carbonic anhydrase 3, 9100 nM; on Carbonic anhydrase 13, 1130 nM; on Carbonic anhydrase 7, 76.6 nM; in assay [2], 1250 nM. Moreover, the results for the Ki at Carbonic anhydrase 12 and at Carbonic anhydrase 6 were 7 nM and 795 nM, respectively.

Regarding `NS(=O)(=O)OCCCCCCCCOS(N)(=O)=O`, the Ki was 605 nM at Carbonic anhydrase 14; 1460 nM in assay [1]; 1130 nM at Carbonic anhydrase 3; 569 nM at Carbonic anhydrase 13; 1200 nM in assay [2]; 7.9 nM at Carbonic anhydrase 12. In addition, affinity on Carbonic anhydrase 6 was put at a Ki of 1020 nM.

The values above are taken from ChEMBL document CHEMBL1155218, “Carbonic anhydrase inhibitors. Comparison of aliphatic sulfamate/bis-sulfamate adducts with isozymes II and IX as a platform for designing tight-binding, more isoform-selective inhibitors” (J Med Chem, 2009).
